In patent US3982931A, “N,N-di-sec.butyl-benzamide herbicides” (priority 1967, dated 1976):

Legend:
[1] = tested on: amaranthus retroflexus L.; test: herbicidal activity, soil treatment one day after sowing; format: in vivo
From the text: (§1) The infesting species and the agrarian species have been indicated in Table 1 by letters, as follows:
A = amaranthus retroflexus L.
(§2) Method of evaluation of the results (of tests):
(§3) 1 slight differences with respect to the control;
(§4) 3 = considerable activity with damages that definitely impair the further development of most of the small plants; an activity degree already useful for practical purposes;
(§5) 4 = maximum of activity with lack of germination or total containment of the small plants in the emerging stage.
(§6) In the case of an intermediate activity between two classes of the scale, both values are recorded with the one which corresponds to the preeminent activity preceding.
(§7) TABLE 2 reports the activity data of other compounds that fall within the class which is the object of this invention.
(§8) TABLE 3 reports data on the herbicidal activity against infesting herbs, while TABLE 4 reports data concerning the activity on useful species of agricultural cultivations. These tables employ the criterion explained previously. […]

[2] = tested on: artemisia vulgaris L.; test: as above; format: in vivo
From the text: as §1
B = artemisia vulgaris L.
as §2, §3, §4, §5, §6, §7, §8

[3] = tested on: chenopodium album L.; test: as above; format: in vivo
From the text: as §1, §2, §3, §4, §5, §6, §7, §8

[4] = tested on: echinocloa crus-galli R.S.; test: as above; format: in vivo
From the text: as §1
D = echinocloa crus-galli R.S.
as §2, §3, §4, §5, §6, §7, §8

[5] = tested on: setaria glauca L.; test: as above; format: in vivo
From the text: as §1, §2, §3, §4, §5
In the case of an intermediate activity between two classes of the scale, both values are recorded with the one which corresponds to the preeminent activity preceding. […]
as §8

[6] = tested on: vicia sativa L.; test: as above; format: in vivo
From the text: as §1, §2, §3, §4, §5, §6, §7

[7] = tested on: triticum vulgare L. (wheat); test: activity on agrarian species, soil treatment one day after sowing; format: in vivo; conditions: in vivo
From the text: as §1
N = triticum vulgare L. (wheat)
as §2
(§9) 0 = no activity and no difference with respect to the control;
as §3, §4, §5, §6, §7
(§10) TABLE 3 reports data on the herbicidal activity against infesting herbs, while TABLE 4 reports data concerning the activity on useful species of agricultural cultivations. These tables employ the criterion explained previously. The product was spread on the soil one day after sowing, in quantities of 1, 3, 6, 8, 10, 12 and 14 kg/ha.

[8] = tested on: oryza sativa L. (rice); test: as above; format: in vivo; conditions: in vivo
From the text: as §1
P = oryza sativa L. (rice)
as §2, §9, §3, §4, §5, §6, §7, §10

[9] = tested on: avena sativa (oats); test: as above; format: in vivo, Avena sativa L.; conditions: in vivo
From the text: as §1, §2, §9, §3, §4, §5, §6, §7, §10

[10] = tested on: phaseolus vulgaris (bean); test: as above; format: in vivo, Phaseolus vulgaris L.; conditions: in vivo
From the text: as §1
I = phaseolus vulgaris (bean)
as §2, §9, §3, §4, §5, §6, §7, §10

[11] = tested on: pisum sativum L. (pea); test: as above; format: in vivo; conditions: in vivo
From the text: as §1
L = pisum sativum L. (pea)
as §2, §9, §3, §4, §5, §6, §7, §8

[12] = tested on: zea mais L. (corn); test: as above; format: in vivo; conditions: in vivo
From the text: as §1, §2, §9, §3, §4, §5, §6, §7, §10

activity on P, 0-4 scale [8]	activity on G, 0-4 scale [9]	activity on I, 0-4 scale [10]	activity on L, 0-4 scale [11]	activity on O, 0-4 scale [12]	SMILES	activity on A, 0-4 scale ([1]; 6 kg/ha)	activity on B, 0-4 scale ([2]; 6 kg/ha)	activity on C, 0-4 scale ([3]; 6 kg/ha)	activity on D, 0-4 scale ([4]; 6 kg/ha)	activity on E, 0-4 scale ([5]; 6 kg/ha)	activity on F, 0-4 scale ([6]; 6 kg/ha)	also measured
0-1					NC(=O)c1ccccc1Cl [C, 2,chloro-benzamide, reference compound]	2	1	2	0-1	0	2-3	activity on N, 0-4 scale [7]: 0-1
0	0	0	0	0	CCC(C)N(C(=O)c1ccc(Cl)cc1Cl)C(C)CC (stereo not shown) [PA214, 2,4-dichloro-N,N-di-sec.butyl-benzamide]	3-4			4	4	0	activity on A, 0-4 scale ([1]; 2 kg/ha): 1; activity on A, 0-4 scale ([1]; 4 kg/ha): 2-3; activity on B, 0-4 scale ([2]; 2 kg/ha): 1; activity on B, 0-4 scale ([2]; 4 kg/ha): 2; activity on C, 0-4 scale ([3]; 2 kg/ha): 1; activity on C, 0-4 scale ([3]; 4 kg/ha): 1-2; activity on D, 0-4 scale ([4]; 4 kg/ha): 3-4; activity on E, 0-4 scale ([5]; 2 kg/ha): 3; activity on E, 0-4 scale ([5]; 4 kg/ha): 3-4; activity on F, 0-4 scale ([6]; 2 kg/ha): 0; activity on F, 0-4 scale ([6]; 4 kg/ha): 0
0	0	0	0	0	CCC(C)N(C(=O)c1ccccc1Cl)C(C)CC (stereo not shown) [PA215 2,chloro-N,N-disec.butyl-benzamide, 2-chloro-N,N-di-sec.butyl-benzamide]	2	1	0-1	2-3	3	0	
0	0	0		0	CCC(C)N(C(=O)c1cccc(Cl)c1)C(C)CC (stereo not shown) [PA215, 3-chloro-N,N-di-sec.butyl-benzamide]	1-2	1-2	1-2	3	3	1-2	
0	0	0	0	0	CCC(C)N(C(=O)c1cccc(C)c1)C(C)CC (stereo not shown) [PA226, 3-methyl-N,N-di-sec.butyl-benzamide]	2	1-2	1-2	4	4	0	activity on A, 0-4 scale ([1]; 4 kg/ha): 1-2; activity on B, 0-4 scale ([2]; 2 kg/ha): 1; activity on B, 0-4 scale ([2]; 4 kg/ha): 1-2; activity on C, 0-4 scale ([3]; 2 kg/ha): 0-1; activity on C, 0-4 scale ([3]; 4 kg/ha): 1; activity on D, 0-4 scale ([4]; 2 kg/ha): 2-3; activity on D, 0-4 scale ([4]; 4 kg/ha): 3; activity on E, 0-4 scale ([5]; 2 kg/ha): 2; activity on E, 0-4 scale ([5]; 4 kg/ha): 3-4; activity on F, 0-4 scale ([6]; 2 kg/ha): 0; activity on F, 0-4 scale ([6]; 4 kg/ha): 0
	0	0	0	0	CCC(C)N(C(=O)c1ccc(C)c(C)c1)C(C)CC (stereo not shown) [PA233, 3,4-dimethyl-N,N-di-sec.butyl-benzamide]	2-3	2	2	4	4	0	activity on D, 0-4 scale ([4]; 2 kg/ha): 2-3; activity on D, 0-4 scale ([4]; 4 kg/ha): 3; activity on E, 0-4 scale ([5]; 2 kg/ha): 3; activity on E, 0-4 scale ([5]; 4 kg/ha): 3-4
3			1		CCCN(CCC)C(=O)c1cc(Cl)cc(Cl)c1Cl [PA303, 2,3,5-trichloro-N,N-di-n. propyl-benzamide, reference compound]	3	1		4	4	0-1	activity on A, 0-4 scale ([1]; 1 kg/ha): 1; activity on A, 0-4 scale ([1]; 4 kg/ha): 2-3; activity on B, 0-4 scale ([2]; 1 kg/ha): 1; activity on B, 0-4 scale ([2]; 2 kg/ha): 1; activity on B, 0-4 scale ([2]; 4 kg/ha): 1; activity on C, 0-4 scale ([3]; 1 kg/ha): 1; activity on C, 0-4 scale ([3]; 2 kg/ha): 1; activity on C, 0-4 scale ([3]; 4 kg/ha): 1-2; activity on D, 0-4 scale ([4]; 1 kg/ha): 1-2; activity on D, 0-4 scale ([4]; 4 kg/ha): 3-4; activity on E, 0-4 scale ([5]; 1 kg/ha): 1-2; activity on E, 0-4 scale ([5]; 2 kg/ha): 3; activity on F, 0-4 scale ([6]; 1 kg/ha): 0; activity on F, 0-4 scale ([6]; 2 kg/ha): 0; activity on F, 0-4 scale ([6]; 4 kg/ha): 0-1
0	0	0	0	0	CCC(C)N(C(=O)c1cccc(Cl)c1Cl)C(C)CC (stereo not shown) [PA336, 2,3-dichloro-N,N-di-sec.butyl-benzamide]	4	3		4	4	0	activity on A, 0-4 scale ([1]; 2 kg/ha): 2-3; activity on B, 0-4 scale ([2]; 2 kg/ha): 1; activity on B, 0-4 scale ([2]; 4 kg/ha): 2; activity on C, 0-4 scale ([3]; 2 kg/ha): 2; activity on C, 0-4 scale ([3]; 4 kg/ha): 3; activity on D, 0-4 scale ([4]; 2 kg/ha): 3-4; activity on D, 0-4 scale ([4]; 4 kg/ha): 4; activity on E, 0-4 scale ([5]; 4 kg/ha): 4; activity on F, 0-4 scale ([6]; 2 kg/ha): 0; activity on F, 0-4 scale ([6]; 4 kg/ha): 0
					CCC(C)N(C(=O)c1ccc(F)c(Br)c1)C(C)CC (stereo not shown) [PA518, 3-bromo,4-fluoro-N,N-di-sec.butyl-benzamide]	2	3	3	3-4	4	0	
					CC(C)CN(CC(C)C)C(=O)c1cccc(Br)c1 [PA521, 3-bromo-N,N-di-isobutyl-benzamide, reference compound]	1	1	1	1-2	1-2	0	
					CCCCN(C(=O)c1cccc(Br)c1)C(C)CC (stereo not shown) [PA525, 3-bromo-N,n.butyl-N-sec.butyl-benzamide]	1-2	0-1	1	3	3-4	0	
					O=C(O)c1cccc(Br)c1 [PA577, 3,bromo-benzoic acid, reference compound]	0	0	0	0	0	0	
					CCC(C)N(C(=O)c1ccc(Br)c(I)c1)C(C)CC (stereo not shown) [PA619, 3-iodo,4-bromo-N,N-di-sec.butyl-benzamide]	0-1	0	0-1	3	3	0	
					CCC(C)N(C(=O)c1cc(Cl)c(Cl)c(Cl)c1)C(C)CC (stereo not shown) [PA621, 3,4,5-trichloro-N,N-di-sec.butyl-benzamide]	2	2	2	4	4	0	
					CCC(C)N(C(=O)c1cc(Cl)cc(Br)c1)C(C)CC (stereo not shown) [PA626, 3-bromo,5-chloro-N,N-di-sec.butyl-benzamide]	1-2	0-1	0-1	3-4	4	0	
					CCC(C)N(C(=O)c1c(Cl)cc(Cl)cc1Cl)C(C)CC (stereo not shown) [PA633, 2,4,6-trichloro-N,N-di-sec.butyl-benzamide]	2	2-3	2-3	4	4	0	
					CCCC(C)N(C(=O)c1ccc(Cl)c(Cl)c1)C(C)CC (stereo not shown) [PA634, 3,4-dichloro-N-sec.amyl,N-sec.butyl-benzamide]	2	2	1-2	3	3-4	0	
